Test results from patent US11696917B2, “Agent enhancing antitumor effect using pyrazolo[3,4-d]pyrimidine compound” (TAIHO PHARMACEUTICAL CO., LTD., priority 2017, dated 2023).
Like-named read-outs stand apart in the source and are kept apart here.

Experiments:
[1] = test system: HER2-overexpressing human stomach cancer cell line NCI-N87 cells; assay: Cytostatic activity against HER2-expressing cell line (NCI-N87), CellTiter-Glo; type: cell-based; settings: 3-day culture, read-out: NCI-N87 cell growth inhibitory activity IC50 value
Description: (§1) HER2-overexpressing human stomach cancer cell line NCI-N87 cells were suspended in RPMI1640 medium (manufactured by Life Technologies Corp.) containing 10% fetal bovine serum. Meanwhile, EGFR-overexpressing highly activated human epithelioid cancer cell line A431 cells were suspended in DMEM, high glucose medium (manufactured by Life Technologies Corp.) containing 10% fetal bovine serum. Subsequently, each cell suspension was inoculated to each well of a 384-well flat-bottom microplate and cultured at 37° C. for 1 day in an incubator containing 5% carbon dioxide. The synthesis example compound was dissolved in DMSO, and the test compound was diluted into a concentration of 500 times the final concentration using DMSO. The solution of the test compound in DMSO was diluted with the medium used in the suspension of each cell line, and this solution was added at a final concentration of DMSO of 0.2% to each well of the cell culture plate, followed by further culture at 37° C. for 3 days in an incubator containing 5% carbon dioxide.

[2] = test system: EGFR-overexpressing highly activated human epithelioid cancer cell line A431 cells; assay: Cytostatic activity against EGFR-expressing cell line (A431), CellTiter-Glo; type: cell-based; settings: 3-day culture, read-out: A431 cell growth inhibitory activity IC50 value
Description: as §1
Rate of growth inhibition (%)=(C−T)/(C)×100 T: Luminescence intensity of a well supplemented with the test compound C: Luminescence intensity of a well not supplemented with the test compound

[3] = molecular target: purified recombinant human HER2 protein (Homo sapiens (Human), UniProt P04626); assay: Measurement of inhibitory effect on HER2-phosphorylating activity (in vitro); type: biochemical; settings: ATP 6 μM, 25° C., 40 minutes
Description: The purified recombinant human HER2 protein used in the test was purchased from Carna Biosciences, Inc.
For the inhibitory activity measurement of each compound, the synthesis example compound was first serially diluted with dimethyl sulfoxide (DMSO).

| Compound | IC50 [2] [µM] | IC50 [3] [µM] | other results |
| --- | --- | --- | --- |
| C=CC(=O)N1CCC[C@@H](n2nc(C(=O)Nc3ccc(CC(=O)N(C)C)c(Cl)c3)c3c(N)ncnc32)C1 [compound 8] | 0.955 | 0.0092 | IC50 [1]: 0.008 µM |
| C=CC(=O)N1CCC[C@@H](n2nc(C(=O)Nc3cc(Cl)c(CC(=O)N(C)C)cc3OC)c3c(N)ncnc32)C1 [compound 9] | 2.45 | 0.01 | IC50 [1]: 0.013 µM |
| C=CC(=O)N1CCC[C@@H](n2nc(C(=O)Nc3ccc(CC(=O)N(C)C)c(F)c3C)c3c(N)ncnc32)C1 [compound 12] | 0.34 | 0.0075 | IC50 [1]: 0.003 µM |
| C=CC(=O)N1CCC[C@@H](n2nc(C(=O)Nc3cc(F)c(CC(=O)N(C)C)cc3Cl)c3c(N)ncnc32)C1 [compound 18] | 1.06 | 0.0044 | IC50 [1]: 0.012 µM |
| C=CC(=O)N1CCC[C@@H](n2nc(C(=O)Nc3cc(Cl)c(CC(=O)N(C)C)cc3Cl)c3c(N)ncnc32)C1 [compound 20] | – | 0.013 | – |
| C=CC(=O)N1CCCC(n2nc(Nc3ccc(C(=O)N(C)C)cc3)c3c(N)ncnc32)C1 (stereo not drawn) [compound 21] | – | 0.026 | – |
| C=CC(=O)N1CCC[C@@H](n2nc(C(=O)Nc3ccc(CC(=O)N(C)C)cc3C3CC3)c3c(N)ncnc32)C1 [compound 22] | – | 0.048 | – |
| C=CC(=O)N1CCC[C@@H](n2nc(C(=O)Nc3ccc(CC(=O)N(C)C)cc3C#N)c3c(N)ncnc32)C1 [compound 23] | – | 0.02 | – |
| C=CC(=O)N1CCC[C@@H](n2nc(C(=O)Nc3cc(C#N)c(CC(=O)N(C)C)cc3C)c3c(N)ncnc32)C1 [compound 24] | – | 0.038 | – |
| C=CC(=O)N1CCC[C@@H](n2nc(C(=O)Nc3ccc(CC(=O)N(C)C)cc3)c3c(N)ncnc32)C1 [compound 28] | – | 0.046 | – |
| C=CC(=O)N1CCC[C@@H](n2nc(C(=O)Nc3ccc(OC(=O)N(C)C)c4ccccc34)c3c(N)ncnc32)C1 [compound 33] | 0.263 | – | – |
| C=CC(=O)N1CCC[C@@H](n2nc(C(=O)Nc3ccc(OC(=O)N(C)C)c(F)c3)c3c(N)ncnc32)C1 [compound 34] | 2.21 | – | IC50 [1]: 0.032 µM |
| C=CC(=O)N1CCC[C@@H](n2nc(C(=O)Nc3ccc(OC(=O)N(C)C)c(F)c3F)c3c(N)ncnc32)C1 [compound 35] | 2.61 | 0.016 | IC50 [1]: 0.008 µM |
| C=CC(=O)N1CCC[C@@H](n2nc(C(=O)Nc3ccc(CC(=O)N(C)C)c(OC)c3)c3c(N)ncnc32)C1 [compound 40] | – | 0.023 | – |
| C=CC(=O)N1CCC[C@@H](n2nc(C(=O)Nc3cccc4c(CC(=O)N(C)C)ccnc34)c3c(N)ncnc32)C1 [compound 41] | – | 0.018 | – |
| C=CC(=O)N1CCC[C@@H](n2nc(C(=O)Nc3ccc(CC(=O)N(C)C)c(F)c3)c3c(N)ncnc32)C1 [compound 42] | – | 0.018 | – |
| C=CC(=O)N1CCC[C@@H](n2nc(C(=O)Nc3ccc(CC(=O)N(C)C)cc3N(C)C)c3c(N)ncnc32)C1 [compound 47] | – | 0.052 | – |
| C=CC(=O)N1CCC[C@@H](n2nc(C(=O)Nc3ccc(CC(=O)N(C)C)cc3C=C)c3c(N)ncnc32)C1 [compound 48] | 0.314 | 0.0085 | IC50 [1]: 0.004 µM |
| C=CC(=O)N1CCC[C@@H](n2nc(C(=O)Nc3ccc(CC(=O)N(C)C)cc3CC)c3c(N)ncnc32)C1 [compound 49] | – | 0.02 | – |
| C=CC(=O)N1CCC[C@@H](n2nc(C(=O)Nc3ccc(CC(=O)N(C)C)c(F)c3Cl)c3c(N)ncnc32)C1 [compound 50] | 0.277 | 0.0029 | IC50 [1]: 0.004 µM |

| Compound | IC50 [2] [µM] | IC50 [3] [µM] | other results |
| --- | --- | --- | --- |
| C=CC(=O)N1CCC[C@@H](n2nc(C(=O)Nc3ccc(CC(=O)N(C)C)cc3-c3ccco3)c3c(N)ncnc32)C1 [compound 51] | – | 0.017 | – |
| C=CC(=O)N1CCC[C@@H](n2nc(C(=O)Nc3ccc(CC(=O)N(C)C)cc3-c3ccoc3)c3c(N)ncnc32)C1 [compound 52] | – | 0.013 | – |
| C=CC(=O)N1CC[C@@H](n2nc(C(=O)Nc3ccc(CC(=O)N(C)C)cc3Cl)c3c(N)ncnc32)C1 [compound 54] | – | 0.031 | – |
| C=CC(=O)N1CC[C@@H](n2nc(C(=O)Nc3ccc(CC(=O)N(C)C)c(Cl)c3OC)c3c(N)ncnc32)C1 [compound 55] | – | 0.049 | – |
| C=CC(=O)N1CC[C@@H](n2nc(C(=O)Nc3ccc(CC(=O)N(C)C)c(F)c3C)c3c(N)ncnc32)C1 [compound 56] | 2.61 | 0.022 | IC50 [1]: 0.031 µM |
| C=CC(=O)N1CC[C@@H](n2nc(C(=O)Nc3ccc(OC(=O)N(C)C)c4ccccc34)c3c(N)ncnc32)C1 [compound 58] | 0.681 | – | – |
| C=CC(=O)N1CC[C@@H](n2nc(C(=O)Nc3ccc(CC(=O)N(C)C)c(C)c3C)c3c(N)ncnc32)C1 [compound 59] | – | 0.045 | – |
| C=CC(=O)N1CC[C@@H](n2nc(C(=O)Nc3ccc(CC(=O)N(C)C)cc3C=C)c3c(N)ncnc32)C1 [compound 60] | 5.26 | 0.02 | – |
| C=CC(=O)N1CC[C@@H](n2nc(C(=O)Nc3ccc(CC(=O)N(C)C)c4ccccc34)c3c(N)ncnc32)C1 [compound 61] | 1.1 | 0.013 | – |
| C=CC(=O)N1CC[C@@H](n2nc(C(=O)Nc3ccc(CC(=O)N(C)C)cc3Br)c3c(N)ncnc32)C1 [compound 62] | – | 0.059 | – |
| C=CC(=O)N1CC[C@@H](n2nc(C(=O)Nc3ccc(OC(=O)N(C)C)cc3C)c3c(N)ncnc32)C1 [compound 63] | 1.67 | – | IC50 [1]: 0.011 µM |
| C=CC(=O)N1CC[C@@H](n2nc(C(=O)Nc3ccc(CC(=O)N(C)C)c(F)c3Cl)c3c(N)ncnc32)C1 [compound 65] | – | 0.02 | – |
| C=CC(=O)N1CC[C@@H](n2nc(C(=O)Nc3cc(Cl)c(CC(=O)N(C)C)cc3C)c3c(N)ncnc32)C1 [compound 67] | – | 0.072 | – |
| C=CC(=O)N1CCC[C@@H](n2nc(C(=O)Nc3ccc(CC(=O)N4CCCC4)cc3C)c3c(N)ncnc32)C1 [compound 71, (R)-1-(1-acryloylpiperidin-3-yl)-4-amino-N-(2-methyl-4-(2-oxo-2-(pyrrolidin-1-yl)ethyl)phenyl)-1H-pyrazolo[3,4-d]pyrimidine-3-carboxamide] | – | – | IC50 ([1]; Homo sapiens, NCI-N87, 72 h): 0.026 µM; IC50 ([2]; Homo sapiens, A-431, 72 h): 2.12 µM |
| C=CC(=O)N1CCC[C@@H](n2nc(C(=O)Nc3ccc(NC(=O)N(C)C)cc3C)c3c(N)ncnc32)C1 [compound 74, (R)-1-(1-acryloylpiperidin-3-yl)-4-amino-N-(4-(3,3-dimethylureido)-2-methylphenyl)-1H-pyrazolo[3,4-d]pyrimidine-3-carboxamide] | – | – | IC50 ([1]; Homo sapiens, NCI-N87, 72 h): 0.018 µM; IC50 ([2]; Homo sapiens, A-431, 72 h): 8.07 µM |
| C=CC(=O)N1C[C@H](n2nc(C(=O)Nc3ccc(CC(=O)N(C)C)cc3Cl)c3c(N)ncnc32)C[C@@H]1C [compound 78] | 5.45 | – | – |
| C=CC(=O)N1C[C@H](n2nc(C(=O)Nc3ccc(CC(=O)N(C)C)c(C)c3C)c3c(N)ncnc32)C[C@@H]1C [compound 79] | 6.94 | 0.017 | – |
| (R)-4-(1-(1-acryloylpyrimidin-3-yl)-4-amino-1H-pyrazolo[3,4-d]pyrimidine-3-carboxamido)-3-methylphenyl methyl(phenyl) carbamate [compound 68] | – | 0.0077 | – |
| (R)-4-(1-(1-acryloylpyrimidin-3-yl)-4-amino-1H-pyrazolo[3,4-d]pyrimidine-3-carboxamido)-3-methylphenyl piperidine-1-carboxylate [compound 70] | – | 0.01 | – |
| (R)-4-(1-(1-acryloylpyrimidin-3-yl)-4-amino-1H-pyrazolo[3,4-d]pyrimidine-3-carboxamido)-3-methylphenyl pyrrolidine-1-carboxylate [compound 69] | – | 0.0092 | – |
